Assay [1] deals with T1, KDR (Homo sapiens, UniProt P35968). The experiment in a line: KDR HTRF in vitro kinase assay. The assay is classed as biochemical. On the set-up: purified enzyme (His6-KDR 789-1354, MW 63 kD); His6 (N). Particulars: 1 mM ATP; read-out: KDR enzyme inhibition data (Ki). The method in brief: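 His6-KDR 789-1354 (7 ng/well) with 0.5 μM biotinylated peptide substrate and 1 mM ATP in HEPES pH 7.1, MgCl2/MnCl2, 60 min at room temperature. EDTA-quenched, detected by streptavidin-XL-665 plus Eu-kryptate anti-phosphotyrosine HTRF after 3 h; IC50 from 620/665 nm ratio.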
Target sequence in this assay (P35968 789-1354): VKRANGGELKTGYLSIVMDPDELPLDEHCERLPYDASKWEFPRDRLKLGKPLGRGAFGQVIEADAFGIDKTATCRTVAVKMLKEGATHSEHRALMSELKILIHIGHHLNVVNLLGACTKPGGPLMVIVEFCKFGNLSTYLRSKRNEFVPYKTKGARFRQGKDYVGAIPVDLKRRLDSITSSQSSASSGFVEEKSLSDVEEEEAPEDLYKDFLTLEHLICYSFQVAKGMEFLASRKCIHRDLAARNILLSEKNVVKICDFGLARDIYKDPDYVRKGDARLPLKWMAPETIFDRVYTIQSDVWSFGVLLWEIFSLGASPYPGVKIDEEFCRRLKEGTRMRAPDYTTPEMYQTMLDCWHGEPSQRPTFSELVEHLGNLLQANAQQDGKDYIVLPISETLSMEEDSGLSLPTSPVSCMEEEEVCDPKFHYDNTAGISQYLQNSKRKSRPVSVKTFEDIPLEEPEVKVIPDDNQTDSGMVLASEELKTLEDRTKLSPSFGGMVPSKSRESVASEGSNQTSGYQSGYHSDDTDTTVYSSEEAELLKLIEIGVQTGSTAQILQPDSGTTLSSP
(TR-FRET usually uses a lanthanide donor and a delayed reading to cut background.)

Assay [2] has as its target T1, KDR. Description: KDR cellular assay (KDR receptor phosphorylation ELISA). The class given is cell-based. More on the design: expressed in transfected cells; host or cells: 3T3 (embryonic mouse) cells. Conditions: KDR transfected 3T3 (embryonic mouse) cells, VEGF stimulated; read-out: IC50 inhibition of KDR phosphorylation. As to the method:
The ability of compounds to inhibit KDR receptor phosphorylation in cells was measured by ELISA following the protocol outlined below.
KDR transfected 3T3 (embryonic mouse) cells added to 96-well tissue culture plates at 20,000 cells/well.
Plates were covered and placed in a 37° C. humidified incubator with 5% CO2 overnight, to allow cells to adhere.
Coating solution was prepared: 500 l/vial PBS was added to 2 vials of anti-KDR antibody, then 1 ml solubilized anti-KDR antibody into 29.0 ml bicarbonate buffer. Coating solution was added to all wells at 150 µl/well (final amount anti-KDR=1 µg/well) and placed at 4° C. overnight.
Blocking solution (2.1 g dry milk+42 ml PBS=5% milk in PBS) was placed on a stir plate for 30 min.
Assay plates were washed twice with PBST, and 200 µl/well blocking solution was added to all wells. Assay plates were covered with plate sealers and placed in a 37° C. microplate chamber until just before cell lysate transfer.
Compound stocks were thawed or prepared in DMSO as 5 mM stocks.
Dilution medium (DM, 1% DMSO in DMEM) and compounds were diluted by half-log increments for concentration response analysis.
Conditioned media was dumped from the tissue culture plates, and plates were blotted dry.
Standard solution in DM, compound dilutions in DM, or DM (for high control, negative control, and reference wells) were added to the tissue culture plates, 25 µl/well. Each pair of tissue culture plates was prepared with the same compounds, solutions, and layout; and will be combined later; Tissue culture plates were covered and placed in the 37° C. microplate chamber for 20 min.
VEGF solution was prepared: 110 l VEGF stock+10.89 ml DM=100 ng/ml VEGF
VEGF solution or DM (for reference wells) was added to the tissue culture plates, 25 μl/well.
Tissue culture plates were covered and placed in the 37° C. microplate chamber for 10 min.
RIPA buffer was prepared (240 l NaVO3 stock+240 l PIC stock+24 l NaF stock+23.496 ml RIPA base) and added to the tissue culture plates, 50 µl/well.
Tissue culture plates were covered and placed on a Labline plate shaker for 10 min (speed about 5).
Assay plates were washed twice with PBST.
Cell lysates from matching wells of each pair of tissue culture plates were combined to =200 µl/well, and were pipetted up and down to mix. Cell lysates were transferred to the assay plates using the same layouts, 170 µl/well.
Assay plates were covered with plate sealers and placed on a Labline plate shaker for 2 hr (speed about 5).
Assay plates were washed 5 times with PBST.
Biotin antibody solution was prepared (16 l biotin antibody stock+32 ml PBST=2000× dilution) and added to the assay plates, 150 µl/well.
Assay plates were covered with plate sealers and placed on a Labline plate shaker for 90 min
Streptavidin-HRP solution was prepared (16 l streptavidin-HRP stock+32 ml PBST=2000× dilution) and added to the assay plates, 150 µl/well.
Assay plates were covered with plate sealers and placed on a Labline plate shaker for 60 min
Substrate was added to the assay plates, 100 µl/well.
As assay plates developed, the plates were each monitored on a Molecular Devices Spectramax set to 650 nm, until the signal in the high control wells was around 0.6 OD and the signal in the negative control wells was around 0.1-0.15 OD.
Stop solution was added to the assay plates, 100 µl/well.
The plates were read on a Molecular Devices Spectramax set to 450 nm.
Data was calculated by Assay Explorer, using same-plate high control wells as 0% and reference standard wells as 100% inhibition of KDR phosphorylation. IC50 values were calculated by non-linear regression analysis of the concentration response data.
Target sequence in this assay (P35968 20-1356): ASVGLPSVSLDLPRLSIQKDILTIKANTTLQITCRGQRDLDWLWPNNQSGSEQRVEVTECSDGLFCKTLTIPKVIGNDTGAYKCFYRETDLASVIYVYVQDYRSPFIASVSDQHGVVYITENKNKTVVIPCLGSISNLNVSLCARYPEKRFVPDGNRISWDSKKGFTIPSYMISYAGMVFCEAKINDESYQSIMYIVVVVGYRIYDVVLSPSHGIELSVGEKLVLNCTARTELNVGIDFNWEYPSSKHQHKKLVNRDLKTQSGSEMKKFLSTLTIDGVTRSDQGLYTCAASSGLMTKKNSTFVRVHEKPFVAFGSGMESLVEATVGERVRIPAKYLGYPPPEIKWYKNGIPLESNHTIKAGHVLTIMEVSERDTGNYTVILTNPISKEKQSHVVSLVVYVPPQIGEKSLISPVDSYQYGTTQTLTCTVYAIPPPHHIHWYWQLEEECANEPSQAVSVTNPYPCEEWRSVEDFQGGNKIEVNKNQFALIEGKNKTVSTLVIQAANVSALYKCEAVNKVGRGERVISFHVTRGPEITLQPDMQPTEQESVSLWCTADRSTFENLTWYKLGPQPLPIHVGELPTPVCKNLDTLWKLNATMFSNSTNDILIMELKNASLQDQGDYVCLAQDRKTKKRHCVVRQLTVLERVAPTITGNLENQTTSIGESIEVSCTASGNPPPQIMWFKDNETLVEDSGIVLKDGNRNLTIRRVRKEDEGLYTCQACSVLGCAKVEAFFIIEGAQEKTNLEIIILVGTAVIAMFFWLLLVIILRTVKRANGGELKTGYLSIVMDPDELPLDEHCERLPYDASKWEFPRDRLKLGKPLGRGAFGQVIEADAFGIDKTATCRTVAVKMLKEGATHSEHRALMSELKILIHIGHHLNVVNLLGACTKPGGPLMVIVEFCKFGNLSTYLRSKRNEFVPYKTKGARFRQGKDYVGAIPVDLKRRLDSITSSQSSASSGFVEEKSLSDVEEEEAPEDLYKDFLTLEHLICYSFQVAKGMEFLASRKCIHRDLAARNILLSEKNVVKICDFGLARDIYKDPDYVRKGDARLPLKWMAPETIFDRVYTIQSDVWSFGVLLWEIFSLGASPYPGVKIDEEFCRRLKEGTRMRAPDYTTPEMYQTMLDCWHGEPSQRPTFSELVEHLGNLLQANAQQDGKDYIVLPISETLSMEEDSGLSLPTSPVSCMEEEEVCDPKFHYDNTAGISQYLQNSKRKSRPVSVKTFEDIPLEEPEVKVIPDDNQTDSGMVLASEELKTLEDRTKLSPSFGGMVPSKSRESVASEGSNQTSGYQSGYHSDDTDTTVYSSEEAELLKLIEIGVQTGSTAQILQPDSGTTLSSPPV
(In general: An ELISA detects its analyte on a solid surface through an enzyme-linked reagent.)

The next assay has as its target T2, Aurora B (Homo sapiens, UniProt Q96GD4).
T2 construct: Active Aurora B enzyme (recombinant residues 1-344)
The experiment in a line: Aurora B enzyme inhibition (time-resolved fluorescence, histone H3 peptide). The class given is biochemical. Particulars: 1 mM ATP. The method in brief: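 IC50s came from an exponential fit of inhibition against inhibitor concentration, with phosphorylation read as the 665/615 nm time-resolved fluorescence ratio after EDTA stop using Eu-anti-phospho-H3 and SA-APC. The 1 h reaction used Aurora B 1-344 plus GST-INCENP, biotin-histone H3 1-21 peptide and 1 mM ATP in pH 7.4 HEPES buffer.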

Another assay has as its target T3, Aurora A (Homo sapiens, UniProt O14965).
T3 sequence (O14965 1-403): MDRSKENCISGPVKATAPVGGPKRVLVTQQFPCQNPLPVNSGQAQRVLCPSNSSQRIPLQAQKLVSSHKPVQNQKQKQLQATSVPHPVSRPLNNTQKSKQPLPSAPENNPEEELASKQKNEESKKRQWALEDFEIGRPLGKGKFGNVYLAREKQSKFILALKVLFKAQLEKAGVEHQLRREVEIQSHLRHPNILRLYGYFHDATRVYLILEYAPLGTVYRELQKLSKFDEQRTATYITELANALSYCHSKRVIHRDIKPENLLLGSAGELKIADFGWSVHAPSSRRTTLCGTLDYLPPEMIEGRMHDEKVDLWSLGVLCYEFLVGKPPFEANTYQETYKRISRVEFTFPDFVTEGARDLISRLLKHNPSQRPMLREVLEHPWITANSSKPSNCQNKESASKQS
Description: Aurora A enzyme inhibition (time-resolved fluorescence, STK substrate-2). The assay is classed as biochemical. Particulars: 1 mM ATP. Put shortly: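 Phosphorylation of biotinylated STK substrate-2 at 1 mM ATP, 1 h, Hepes buffer pH 7.4 (MgCl2, sodium orthovanadate, Triton X-100). After EDTA quench, 665/615 nm time-resolved fluorescence ratio read via europium anti-phospho antibody and SA-XL665; IC50 from exponential fit versus inhibitor concentration.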

Each structure is given as a SMILES string.

By Ki is commonly meant a measure of affinity in units of concentration, obtained from inhibition or displacement. One may read the IC50 as the concentration at which inhibition is half-maximal.

T2 sequence (Q96GD4 whole entry, the tested form may be a part): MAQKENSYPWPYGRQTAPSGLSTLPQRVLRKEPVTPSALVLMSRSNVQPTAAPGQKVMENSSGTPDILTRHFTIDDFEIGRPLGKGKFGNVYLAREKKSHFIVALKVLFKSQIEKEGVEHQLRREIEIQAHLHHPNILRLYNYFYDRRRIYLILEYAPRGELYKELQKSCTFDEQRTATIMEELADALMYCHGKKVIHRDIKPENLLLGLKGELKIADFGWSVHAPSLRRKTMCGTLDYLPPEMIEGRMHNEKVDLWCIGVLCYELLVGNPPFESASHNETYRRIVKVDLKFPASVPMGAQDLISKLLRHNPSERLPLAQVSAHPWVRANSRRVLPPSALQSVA
T2 sequence (Q9NQS7 826-918 partner limits assumed): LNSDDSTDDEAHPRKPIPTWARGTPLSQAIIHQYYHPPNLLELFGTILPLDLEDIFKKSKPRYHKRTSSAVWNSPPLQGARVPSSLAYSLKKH

Take `CC(C)NC(=O)[C@@H]1CCC[C@@H]1Nc1nc(Nc2cnn(C)c2)ncc1Cl.CC(C)NC(=O)[C@H]1CCC[C@H]1Nc1nc(Nc2cnn(C)c2)ncc1Cl` (mixture of isomers) [Example 156, (1S,2R)-2-({5-chloro-2-[(1-methyl-1H-pyrazol-4-yl)amino]pyrimidin-4-yl}amino)-N-isopropylcyclopentanecarboxamide and (1R,2S)-2-({5-chloro-2-[(1-methyl-1H-pyrazol-4-yl)amino]pyrimidin-4-yl}amino)-N-isopropylcyclopentanecarboxamide]: the figures for the Ki at KDR [1], at Aurora B and at Aurora A were 100 to 1000 nM, under 100 nM and under 100 nM, respectively. The IC50 on KDR [2] lay in the range of 100 to 1000 nM.

Take `CC(C)NC(=O)[C@H]1CCC[C@H]1Nc1nc(Nc2cnn(CCN3CCOCC3)c2)ncc1Cl` [Example 164, (1S,2R)-2-{[5-chloro-2-({1-[2-(morpholin-4-yl)ethyl]-1H-pyrazol-4-yl}amino)pyrimidin-4-yl]amino}-N-isopropylcyclopentanecarboxamide]: the inhibition constant (Ki) is 100 to 1000 nM at KDR [1], under 100 nM at Aurora B and under 100 nM on Aurora A. The IC50 at KDR [2] was 100 to 1000 nM.

Turning to `NC(=O)[C@@H]1[C@H](Nc2nc(Nc3cnn(CC(F)(F)F)c3)ncc2C(F)(F)F)[C@H]2C=C[C@@H]1C2` (racemic) [Example 32, (1S,2S,3R,4R)-3-{[2-{[1-(2,2,2-trifluoroethyl)-1H-pyrazol-4-yl]amino}-5-(trifluoromethyl)pyrimidin-4-yl]amino}bicyclo[2.2.1]hept-5-ene-2-carboxamide and (1R,2R,3S,4S)-3-{[2-{[1-(2,2,2-trifluoroethyl)-1H-pyrazol-4-yl]amino}-5-(trifluoromethyl)pyrimidin-4-yl]amino}bicyclo[2.2.1]hept-5-ene-2-carboxamide], the Ki at KDR [1], at Aurora B and at Aurora A was under 100 nM in each case. Besides, on KDR [2], the IC50 is under 100 nM.

Consider `CN1CCN(CCn2cc(Nc3ncc(Cl)c(N[C@H]4[C@@H](C(N)=O)C[C@H]5C[C@@H]4C5(C)C)n3)cn2)CC1` [Example 190, (1R,2R,3S,5R)-2-{[5-chloro-2-({1-[2-(4-methylpiperazin-1-yl)ethyl]-1H-pyrazol-4-yl}amino)pyrimidin-4-yl]amino}-6,6-dimethylbicyclo[3.1.1]heptane-3-carboxamide], for which the values for the Ki on KDR [1], at Aurora B and on Aurora A were 100 to 1000 nM, under 100 nM and 100 to 1000 nM, respectively. At KDR [2], the IC50 fell in the range of 100 to 1000 nM.

Regarding `Cc1nc(Nc2cnn(C)c2)nc(N[C@@H]2[C@H](C(N)=O)[C@H]3C=C[C@@H]2C3)c1Cl.Cc1nc(Nc2cnn(C)c2)nc(N[C@H]2[C@@H](C(N)=O)[C@@H]3C=C[C@H]2C3)c1Cl` (mixture of isomers) [Example 125, (1S,2S,3R,4R)-3-({5-chloro-6-methyl-2-[(1-methyl-1H-pyrazol-4-yl)amino]pyrimidin-4-yl}amino)bicyclo[2.2.1]hept-5-ene-2-carboxamide and (1R,2R,3S,4S)-3-({5-chloro-6-methyl-2-[(1-methyl-1H-pyrazol-4-yl)amino]pyrimidin-4-yl}amino)bicyclo[2.2.1]hept-5-ene-2-carboxamide], the Ki at KDR [1] is 100 to 1000 nM; at Aurora B, under 100 nM; at Aurora A, 100 to 1000 nM. For the same compound, at KDR [2], the IC50 was 100 to 1000 nM.

Turning to `Cn1cc(Nc2ncc(C(F)(F)F)c(Nc3cn(C)nc3C(N)=O)n2)cn1` [Example 153, 1-methyl-4-({2-[(1-methyl-1H-pyrazol-4-yl)amino]-5-(trifluoromethyl)pyrimidin-4-yl}amino)-1H-pyrazole-3-carboxamide], the Ki at KDR [1] is 100 to 1000 nM; on Aurora B, under 100 nM; on Aurora A, under 100 nM. Further, the half-maximal inhibitory concentration (IC50) at KDR [2] fell in the range of 100 to 1000 nM.

Regarding `Cn1cc(Nc2ncc(Cl)c(Nc3ccccc3CO)n2)cn1` [Example 145, [2-({5-chloro-2-[(1-methyl-1H-pyrazol-4-yl)amino]pyrimidin-4-yl}amino)phenyl]methanol], the Ki on KDR [1], at Aurora B and on Aurora A was under 100 nM in each case. For the same compound, the IC50 on KDR [2] fell in the range of 100 to 1000 nM.

Regarding `Cn1cc(Nc2ncc(Cl)c(Nc3ccc4[nH]ncc4c3)n2)cn1` [Example 175, 5-chloro-N^4-(1H-indazol-5-yl)-N^2-(1-methyl-1H-pyrazol-4-yl)pyrimidine-2,4-diamine], the inhibition constant (Ki) at KDR [1], on Aurora B and on Aurora A was under 100 nM each time. In addition, the IC50 on KDR [2] fell in the range of 100 to 1000 nM.

`Cn1cc(Nc2ncc(Cl)c(Nc3ccccc3C3(O)CCOCC3)n2)cn1` [Example 133, 4-[2-({5-chloro-2-[(1-methyl-1H-pyrazol-4-yl)amino]pyrimidin-4-yl}amino)phenyl]tetrahydro-2H-pyran-4-ol]: the figures for the inhibition constant Ki on KDR [1], on Aurora B and on Aurora A were 100 to 1000 nM, under 100 nM and under 100 nM, respectively. Besides, the IC50 at KDR [2] fell in the range of 100 to 1000 nM.

`Cn1cc(Nc2ncc(Br)c(N[C@@H]3[C@H](C(N)=O)[C@H]4C=C[C@@H]3C4)n2)cn1.Cn1cc(Nc2ncc(Br)c(N[C@H]3[C@@H](C(N)=O)[C@@H]4C=C[C@H]3C4)n2)cn1` (mixture of isomers) [Example 28, (1S,2S,3R,4R)-3-({5-bromo-2-[(1-methyl-1H-pyrazol-4-yl)amino]pyrimidin-4-yl}amino)bicyclo[2.2.1]hept-5-ene-2-carboxamide and (1R,2R,3S,4S)-3-({5-bromo-2-[(1-methyl-1H-pyrazol-4-yl)amino]pyrimidin-4-yl}amino)bicyclo[2.2.1]hept-5-ene-2-carboxamide]: the Ki on KDR [1], on Aurora B and on Aurora A was under 100 nM throughout. Moreover, the IC50 on KDR [2] was under 100 nM.

On to `CCn1cc(Nc2ncc(Cl)c(Nc3ccc4[nH]ncc4c3)n2)cn1` [Example 176, 5-chloro-N^2-(1-ethyl-1H-pyrazol-4-yl)-N^4-(1H-indazol-5-yl)pyrimidine-2,4-diamine], for which, at KDR [2], the IC50 fell in the range of 100 to 1000 nM.

(Values after US8426408B2, “Pyrimidine inhibitors of kinases” (AbbVie Inc., priority 2009, dated 2013).)
